Earlier results in patent US20260207586A1, “PHARMACEUTICAL COMPOSITION COMPRISING LURBINECTEDIN, PREPARATION METHOD THEREFOR, AND USE THEREOF” (BrightGene Bio-Medical Technology Co., Ltd., priority 2022, published 2026).

SMILES: COc1ccc2[nH]c3c(c2c1)CCN[C@]31CS[C@@H]2c3c(OC(C)=O)c(C)c4c(c3[C@H](COC1=O)N1[C@@H]2[C@H]2c3c(cc(C)c(OC)c3O)C[C@@H]([C@@H]1O)N2C)OCO4 [Lurbinectedin]
- Solubility in water: limited
- Storage time under refrigeration (5° C.): 1 month
- Stability at room temperature (25° C.): rapidly degraded
